In patent publication EP4385980A1, “INDAZOLES AS INHIBITORS OF NAV1.8” (Grünenthal GmbH, priority 2022, dated 2024):

biological target: T1, human NaV1.8 (Homo sapiens, UniProt Q9Y5Y9); test: Electrophysiology: voltage-clamp recordings (whole-cell automated patch clamp, Qube384); format: cell-based; settings: HEK-NaV1.8 with b3 recombinant cell line, ambient room temperature, read-out: Potency category (human NaV1.8 IC50)
T1 construct: expressed in transfected cells; host or cells: HEK
Method: The following NaV1.8 recombinant cell line was used for recordings: HEK-NaV1.8 (NM_006514.1) with b3 (NM_018400.3).
Sodium currents were measured using the patch clamp technique in the whole-cell configuration using the Qube384 (Sophion A/S, Copenhagen, Denmark) automated voltage clamp platform. "Multi hole" plates were used for the cell line expressing NaV1.8 while "single hole" plates were used for the recombinant cell lines expressing the other subtypes. Appropriate filters (for minimum seal resistance and minimum current size) and series resistance compensation (for high quality sodium channel recordings) were applied. Data was collected at ambient room temperature.
The recording […] solution contained (in mM): NaCl 145 mM, KCl 4 mM, CaCl2 2 mM, MgCl2 1 mM, HEPES 10 mM, Glucose 10 mM, pH 7.4 (NaOH). The […] recording solution contained (in mM): CsF 120 mM, CsCl 20 mM, NaCl 10 mM, EGTA 10 mM, HEPES 10 mM, pH 7.2 (CsOH). Currents were recorded at 25 kHz sampling frequency and filtered at 5 kHz. Series resistance compensation was applied at 65%.
Vehicle (VEH) is the control condition where cells are exposed to 0.3 % DMSO without compound. All runs include VEH controls being exposed to the same voltage protocols to assess non-compound related phenomena such as run down and then used to isolate compound dependent effects on currents.
To check for state-dependence inhibition, the following voltage-sequence was applied every 20 seconds: From a resting membrane potential of-120 mV, the first test pulse (P1; 20 ms to -10 mV) was applied to check for channels in the Resting State followed by a brief recovery (20 ms to -120 mV), then holding the membrane voltage to V1/2 (4 seconds at voltage to obtain half the channel at Rest and half Inactivated) with a subsequent second test pulse (P2; 20 ms to -10 mV) to check for channels in the Inactivated State, followed by another brief recovery (20 ms to -120 mV) and a final third test pulse (P3; 20 ms to -10 mV) to check for recovered channels.
To check for frequency-dependent inhibition, a 10 Hz protocol and a 20 Hz protocol were applied; namely,
From a resting membrane potential of -120 mV, 40-pulses (10 ms to -10 mV) was applied at 10 Hz (at 100 ms between pulses) and then at 20 Hz (at 50 ms between pulses).
Each parameter was recorded (P1, P2, P3, P40 from 10Hz and P40 from 20Hz) during a control period (lasting ~ 5 minutes) when establishing the baseline and during compound period (lasting ~ 12 minutes) when test compound (or vehicle) was applied. For each parameter, the value at the end of the compound period was normalized to the vehicle baseline; as follows Normalized Inhibition (NormCPD) = (CPD Valueend CPD period)/(VEH Valueend Control Period) [formula]
To adjust for any variance in the Na^+ current signal during the compound period (owing to cumulative inactivation independent of compound or shifts in biophysics over time), a dedicated segment of the recording wells in each 384 plate were dedicated to having only vehicle exposure. These vehicle-only recordings were used to correct for any apparent "run-up" or "run-down" in the experiment. Normalized Inhibition (NormVEH) = (VEH Valueend CPD period)/(VEH Valueend Control Period) [formula]
The adjusted inhibition was calculated as follows: % Inhibitioncorrected = 100 × (NormCPD −NormVEH)/(100−NormVEH) [formula]
Percent inhibition was determined and IC50 values were calculated using a 4 parameter logistic model within XLFit Software (IDBS, Boston MA): % Inhibitioncorrected = A + ((B−A))/((1 + (((x)/(C)))^D) [formula] where A and B are the maximal and minimum inhibition respectively, C is the IC50 concentration and D is the (Hill) slope.

T1 sequence (Q9Y5Y9 whole entry): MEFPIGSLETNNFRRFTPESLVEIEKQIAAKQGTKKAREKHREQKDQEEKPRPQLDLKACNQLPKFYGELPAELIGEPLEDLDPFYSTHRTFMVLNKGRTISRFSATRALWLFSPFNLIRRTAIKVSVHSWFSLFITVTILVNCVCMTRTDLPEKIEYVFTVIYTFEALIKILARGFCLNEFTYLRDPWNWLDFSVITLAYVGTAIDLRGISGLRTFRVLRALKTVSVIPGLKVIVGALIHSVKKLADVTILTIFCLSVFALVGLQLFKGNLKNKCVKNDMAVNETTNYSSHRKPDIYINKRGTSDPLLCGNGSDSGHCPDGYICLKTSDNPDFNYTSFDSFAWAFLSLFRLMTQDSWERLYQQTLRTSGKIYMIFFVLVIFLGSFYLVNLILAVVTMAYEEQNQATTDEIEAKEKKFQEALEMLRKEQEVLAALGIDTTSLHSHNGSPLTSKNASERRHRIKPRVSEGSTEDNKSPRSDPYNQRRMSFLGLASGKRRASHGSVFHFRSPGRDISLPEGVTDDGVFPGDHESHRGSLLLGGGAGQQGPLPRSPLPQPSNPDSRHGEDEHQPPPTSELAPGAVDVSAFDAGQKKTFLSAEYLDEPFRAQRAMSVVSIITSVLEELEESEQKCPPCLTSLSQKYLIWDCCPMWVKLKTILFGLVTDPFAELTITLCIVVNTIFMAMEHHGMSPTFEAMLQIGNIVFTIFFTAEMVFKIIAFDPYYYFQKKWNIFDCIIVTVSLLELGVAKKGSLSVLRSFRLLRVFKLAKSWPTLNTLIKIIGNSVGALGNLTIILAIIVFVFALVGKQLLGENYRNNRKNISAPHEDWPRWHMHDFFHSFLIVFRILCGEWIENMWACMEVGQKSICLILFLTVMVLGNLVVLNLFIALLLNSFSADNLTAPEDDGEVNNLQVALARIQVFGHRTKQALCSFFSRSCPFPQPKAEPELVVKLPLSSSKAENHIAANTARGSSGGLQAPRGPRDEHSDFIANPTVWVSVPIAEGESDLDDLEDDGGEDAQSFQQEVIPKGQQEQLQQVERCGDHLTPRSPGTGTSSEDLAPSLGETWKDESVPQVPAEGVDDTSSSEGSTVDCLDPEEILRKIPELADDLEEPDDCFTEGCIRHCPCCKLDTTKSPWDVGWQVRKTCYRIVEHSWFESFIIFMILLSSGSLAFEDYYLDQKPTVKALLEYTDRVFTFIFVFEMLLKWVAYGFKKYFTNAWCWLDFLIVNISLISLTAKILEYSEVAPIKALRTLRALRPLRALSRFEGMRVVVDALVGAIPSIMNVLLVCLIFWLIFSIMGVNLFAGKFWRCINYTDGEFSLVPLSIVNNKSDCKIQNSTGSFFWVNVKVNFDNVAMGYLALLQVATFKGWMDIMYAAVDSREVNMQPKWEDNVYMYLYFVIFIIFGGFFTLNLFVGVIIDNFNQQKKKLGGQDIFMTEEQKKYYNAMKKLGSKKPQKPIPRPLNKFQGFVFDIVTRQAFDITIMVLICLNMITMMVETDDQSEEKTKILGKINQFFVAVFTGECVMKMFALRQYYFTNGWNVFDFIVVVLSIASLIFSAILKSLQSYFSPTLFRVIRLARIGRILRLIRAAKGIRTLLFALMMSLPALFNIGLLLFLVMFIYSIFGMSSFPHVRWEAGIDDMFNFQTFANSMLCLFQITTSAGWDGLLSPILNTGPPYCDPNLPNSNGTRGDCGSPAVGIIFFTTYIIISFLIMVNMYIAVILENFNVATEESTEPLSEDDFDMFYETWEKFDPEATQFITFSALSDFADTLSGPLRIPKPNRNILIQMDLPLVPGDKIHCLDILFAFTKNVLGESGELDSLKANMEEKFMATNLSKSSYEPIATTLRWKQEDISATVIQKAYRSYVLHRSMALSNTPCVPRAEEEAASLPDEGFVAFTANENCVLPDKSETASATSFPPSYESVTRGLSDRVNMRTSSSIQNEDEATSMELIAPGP
T1 sequence (Q9NY72 23-215 partner): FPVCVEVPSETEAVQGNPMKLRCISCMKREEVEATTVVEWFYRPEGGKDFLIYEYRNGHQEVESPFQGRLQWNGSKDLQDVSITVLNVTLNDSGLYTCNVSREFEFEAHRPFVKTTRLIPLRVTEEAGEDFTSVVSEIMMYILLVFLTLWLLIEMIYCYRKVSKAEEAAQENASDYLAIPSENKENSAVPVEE

IC50 [nM]	SMILES
1000 to 10000	Cn1ccc(NC(=O)c2c3ccccc3nn2CC2CCCCC2)cc1=O [SC-39, 2-(cyclohexylmethyl)-N-(1-methyl-2-oxo-1,2-dihydropyridin-4-yl)-2H-indazole-3-carboxamide]
100 to 1000	CS(=O)(=O)c1cccc(NC(=O)c2c3ccc(F)cc3nn2CC2CCOCC2)c1 [SC-60, 6-fluoro-N-(3-methylsulfonylphenyl)-2-(oxan-4-ylmethyl)indazole-3-carboxamide]
1000 to 10000	O=C(Nc1ccnc(O)c1)c1c2ccccc2nn1CC1CCC(F)(F)CC1 [SC-24, 2-[(4,4-difluorocyclohexyl)methyl]-N-(2-hydroxypyridin-4-yl)indazole-3-carboxamide]
1000 to 10000	CS(=O)(=O)c1cccc(NC(=O)c2c3ccccc3nn2CC2CCOC2)c1 (stereo not drawn) [SC-56, N-(3-methylsulfonylphenyl)-2-(oxolan-3-ylmethyl)indazole-3-carboxamide]
≤ 100	CS(=O)(=O)c1cccc(NC(=O)c2c3cccc(C(F)(F)F)c3nn2CC2CCCCC2)c1 [SC-44, 2-(cyclohexylmethyl)-N-(3-methylsulfonylphenyl)-7-(trifluoromethyl)indazole-3-carboxamide]
≤ 100	NS(=O)(=O)c1cccc(NC(=O)c2c3ccc(F)cc3nn2CC2CCCCC2)c1 [SC-28, 2-(cyclohexylmethyl)-6-fluoro-N-(3-sulfamoylphenyl)indazole-3-carboxamide]
≤ 100	Cc1cccc2c(C(=O)Nc3cc[nH]c(=O)c3)n(CC3CCCCC3)nc12 [SC-43, 2-(cyclohexylmethyl)-7-methyl-N-(2-oxo-1,2-dihydropyridin-4-yl)-2H-indazole-3-carboxamide]
≤ 100	NS(=O)(=O)c1cc(NC(=O)c2c3ccc(F)cc3nn2CC2CCCCC2)ccn1 [SC-87, 2-(cyclohexylmethyl)-6-fluoro-N-(2-sulfamoylpyridin-4-yl)-2H-indazole-3-carboxamide]
1000 to 10000	CS(=O)(=O)c1cccc(NC(=O)c2c3ccccc3nn2CC2CCOCC2)c1 [SC-14, N-(3-methylsulfonylphenyl)-2-(oxan-4-ylmethyl)indazole-3-carboxamide]
≤ 100	NS(=O)(=O)c1cccc(NC(=O)c2c3cccc(F)c3nn2CC2CCCC(F)(F)C2)c1 (stereo not drawn) [SC-81, 2-((3,3-difluorocyclohexyl)methyl)-7-fluoro-N-(3-sulfamoylphenyl)-2H-indazole-3-carboxamide]
≤ 100	Cc1ccc(Cl)c2c(C(=O)Nc3ccnc(C(N)=O)c3)n(CC3CCC(F)(F)C3)nc12 (single isomer, unassigned) [SC-82b, N-(2-carbamoylpyridin-4-yl)-4-chloro-2-((3,3-difluorocyclopentyl)methyl)-7-methyl-2H-indazole-3-carboxamide]
≤ 100	Cc1cccc2c(C(=O)Nc3ccnc(S(N)(=O)=O)c3)n(C[C@H]3CCCCO3)nc12 (single isomer, unassigned) [SC-88b]
100 to 1000	CS(=O)(=O)c1cccc(NC(=O)c2c3ccc(F)cc3nn2CCC2CCCC2)c1 [SC-61, 2-(2-cyclopentylethyl)-6-fluoro-N-(3-methylsulfonylphenyl)indazole-3-carboxamide]
100 to 1000	O=C(Nc1ccnc(O)c1)c1c2ccccc2nn1CC1CCCCCC1 [SC-13, 2-(cyclohcptylmethyl)-N-(2-hydroxypyridin-4-yl)indazole-3-carboxamide]
≤ 100	CC1(C)CC(Cn2nc3cc(F)ccc3c2C(=O)Nc2cccc(S(C)(=O)=O)c2)C1 [SC-68, 2-[(3,3-dimethylcyclobutyl)methyl]-6-fluoro-N-(3-methylsulfonylphenyl)indazole-3-carboxamide]
100 to 1000	O=C(Nc1ccnc(O)c1)c1c2cccc(F)c2nn1CC1CCCCC1 [SC-20, 2-(cyclohexylmethyl)-7-fluoro-N-(2-hydroxypyridin-4-yl)indazole-3-carboxamide]

IC50 [nM]	SMILES
≤ 100	CS(=O)(=O)c1cccc(NC(=O)c2c3ccccc3nn2CC2CCCCC2)c1 [SC-37, 2-(cyclohexylmethyl)-N-(3-methylsulfonylphenyl)indazole-3-carboxamide]
100 to 1000	C[S+]([O-])c1cccc(NC(=O)c2c3ccc(F)cc3nn2CC2CCCCC2)c1 (stereo not drawn) [SC-19, 2-(cyclohexylmethyl)-6-fluoro-N-(3-(methylsulfinyl)phenyl)-2H-indazole-3-carboxamide]
100 to 1000	O=C(Nc1ccnc(O)c1)c1c2ccccc2nn1CC1CCCCC1 [SC-10, 2-(cyclohexylmethyl)-N-(2-hydroxypyridin-4-yl)-2H-indazole-3-carboxamide]
100 to 1000	O=C(Nc1ccnc(O)c1)c1c2c(F)cccc2nn1CC1CCCCC1 [SC-49, 2-(cyclohexylmethyl)-4-fluoro-N-(2-hydroxypyridin-4-yl)indazole-3-carboxamide]
≤ 100	CS(=O)(=O)c1cccc(NC(=O)c2c3ccc(F)cc3nn2CC2CCCCC2)c1 [SC-11, 2-(cyclohexylmethyl)-6-fluoro-N-(3-methylsulfonylphenyl)indazole-3-carboxamide]
≤ 100	NS(=O)(=O)c1cccc(NC(=O)c2c3ccc(F)cc3nn2CC2CCC(F)(F)CC2)c1 [SC-38, 2-[(4,4-difluorocyclohexyl)methyl]-6-fluoro-N-(3-sulfamoylphenyl)indazole-3-carboxamide]
100 to 1000	NC(=O)c1cc(NC(=O)c2c3ccccc3nn2CC2CCC(F)(F)CC2)ccc1F [SC-25, N-(3-carbamoyl-4-fluorophenyl)-2-[(4,4-difluorocyclohexyl)methyl]indazole-3-carboxamide]
1000 to 10000	O=C(Nc1ccnc(O)c1)c1c2ccccc2nn1CC1CCOC1 (stereo not drawn) [SC-50, N-(2-hydroxypyridin-4-yl)-2-(oxolan-3-ylmethyl)indazole-3-carboxamide]
100 to 1000	O=C(Nc1ccnc(O)c1)c1c2ccc(F)cc2nn1CC1CCC(F)(F)CC1 [SC-06, 2-((4,4-difluorocyclohexyl)methyl)-6-fluoro-N-(2-hydroxypyridin-4-yl)-2H-indazole-3-carboxamide]
≤ 100	Cc1cccc2nn(CC3CCCCC3)c(C(=O)Nc3cccc(S(C)(=O)=O)c3)c12 [SC-83, 2-(cyclohexylmethyl)-4-methyl-N-(3-(methylsulfonyl)phenyl)-2H-indazole-3-carboxamide]
≤ 100	NC(=O)c1cc(NC(=O)c2c3ccc(F)cc3nn2CC2CCCCC2)ccn1 [SC-86, N-(2-carbamoylpyridin-4-yl)-2-(cyclohexylmethyl)-6-fluoro-2H-indazole-3-carboxamide]
100 to 1000	NS(=O)(=O)c1cccc(NC(=O)c2c3ccccc3nn2CC2CCOCC2)c1 [SC-15, N-(3-sulfamoylphenyl)-2-((tetrahydro-2H-pyran-4-yl)methyl)-2H-indazole-3-carboxamide]
100 to 1000	CS(=O)(=O)c1cccc(NC(=O)c2c3ccccc3nn2CC2CCC(F)(F)CC2)c1 [SC-22, 2-[(4,4-difluorocyclohexyl)methyl]-N-(3-methylsulfonylphenyl)indazole-3-carboxamide]
1000 to 10000	NC(=O)c1cc(NC(=O)c2c3ccccc3nn2CC2CCOCC2)ccc1F [SC-21, N-(3-Carbamoyl-4-fluorophenyl)-2-((tetrahydro-2H-pyran-4-yl)methyl)-2H-indazole-3-carboxamide]
≤ 100	Cc1cccc2c(C(=O)Nc3cccc(S(C)(=O)=O)c3)n(CC3CCCCC3)nc12 [SC-45, 2-(cyclohexylmethyl)-7-methyl-N-(3-methylsulfonylphenyl)indazole-3-carboxamide]

SMILES	IC50 [nM]
CS(=O)(=O)n1cc(NC(=O)c2c3ccccc3nn2CC2CCCCC2)cn1 [SC-36, 2-(cyclohexylmethyl)-N-(1-(methylsulfonyl)-1H-pyrazol-4-yl)-2H-indazole-3-carboxamide]	100 to 1000
NS(=O)(=O)c1cc(NC(=O)c2c3cccc(C(F)F)c3nn2C[C@H]2CCCCO2)ccn1 [SC-89b]	≤ 100
